Experimental data as given in ChEMBL document CHEMBL1129229, “Synthesis and trypanocidal activity of the bis-carba analogue of pentamidine” (1996).

Tested on: Mus musculus
Test: Effective dose against Trypanosoma brucei S427/118 infection in mice, administered ip after 24 hr
Assay type: functional

| SMILES | ED50 [mg/kg] |
| --- | --- |
| N=C(N)c1ccc(CCCCCCCc2ccc(C(=N)N)cc2)cc1 | 7.3 |
| N=C(N)c1ccc(OCCCCCOc2ccc(C(=N)N)cc2)cc1 [PENTAMIDINE] | 0.38 |
